Measurements: US20090247495A1, “CU[…] AND USES THEREOF” (priority 2007, published 2009)

Experiments:
[1] = system: Human leukemia cell lines CCRF-CEM, K562, MOLT-4, RPMI-8226 and SR; experiment: Cell proliferation assay using SRB, 5 human leukemia cell lines; assay type: cell-based; conditions: 48 hours treatment, range over all leukemia cell lines
Description: Human leukemia cell lines CCRF-CEM, K562, MOLT-4, RPMI-8226 and SR, purchased from the National Cancer Institute (NCI), were cultured in RPMI 1640 medium supplemented with 5%(v/v) fetal Bovine […] and 100 units/ml penicillin and 100 units/ml streptomycin in a humidified 5% CO2 atmosphere at 37° C. • 6.1.2 Reagents and Antibodies
All 5 human leukemia cells were screened by the cell proliferation assay using SRB to quantitative cell protein mass following cucurbitacin B treatment. The experiments were repeated in triplicate. Appropriate number of cells (depends on the doubling time of cells) were seeded into a 96-well tissue culture plate and growth in the indicated medium in presence of different dosages of cucurbitacin B for 2 days. Afterwards 25 μl 80%TCA reagent was added into each well to fix the cells and the plates were incubated at 4° C. at least for 1 hour. Then the plates were washed with tap water and air dried. […] The plates were air dried and dissolved by 100 μl 1 OmMTrizma-base solution and the absorbance was measured at 515 nm using FLUOstar OPTIMA equipment. • 6.1.4 Flow Cytometry for Apoptosis Analysis
Appropriate number of cell density were seeded into a 96 well culture plate and treated with different doses of cucurbitacin B for 2 days. The growth inhibition effects of cucurbitacin B on the cells were detected using SRB.

[2] = system: human MDA-MB-231 breast cancer cells; experiment: Orthotopic human breast cancer model in nude mice; assay type: in vivo
Description: One million human MDA-MB-231 breast cancer cells/Matrigel (vol 1:1) were inoculated isotopically into the breasts of nude mice. The mice received intraperitoneal injections of 1 mg/ml of cucurbitacin B 3 times a week starting on the day after inoculation of the cells. The longitudinal and the transverse diameter, and the height were measured once a week. The volume was calculated by multiplying these elements, and the relative tumor size was determined by dividing the product by the initial volume. After 6 weeks, the mice were sacrificed to weigh the dissected tumors. At that moment, blood was taken for analysis, where organs and tumors were inspected, dissected, fixed and stained with hematoxylin-eosin and/or Ki-67. Data were expressed as mean±SD. Statistical analysis was performed by student's t test.
Six weeks after i.p. treatment with either vehicle or cucurbitacin B 1 mg/kg three times a week, mice were euthanized and tumors were observed and weighed. Results represented the mean and SD of 9 treated and 9 control tumors. Statistical analysis was performed by student's t test.

[3] = system: Human cancer cell lines from the 59-NCI Cancer Cell Line Panel; assay type: cell-based
[4] = system: Human cancer cell lines from the 59-NCI Cancer Cell Line Panel; experiment: Apoptosis (Annexin V-FITC / PI) by flow cytometry, 18 selected NCI panel cell lines; assay type: cell-based; conditions: 48 hours; GI50, ½ GI50 and ¼ GI50
Description: Apoptosis is the important mechanism for cell death in normal cells. In cancer cells, this mechanism fails and cells proliferate without control. Human cancer cell lines from the 59-NCI Cancer Cell Line Panel including leukemia, melanoma and cancers of breast, brain, colon, lung, ovary, prostate and kidney were purchased from the National Institute of Cancer. […] They were treated with cucurbitacin B and cucurbitacin D at three different concentrations to elucidate their ability to induce any changes in cell cycle.
Cancer cell lines were maintained in RPMI 1640 supplemented with 5% Fetal Bovine Serum, 2 mM L-glutamine and 1% Penicillin/Streptomycin at 37° C. with 5% CO2. Cells were inoculated into tissue culture flask at cell concentrations from 50000 to 400,000 cells/ml according to the NCI guideline. The cells were incubated at 37° C. with 5% CO2 for 24 hours. Cucurbitacin B and cucurbitacin D were added to the cells of final concentrations ranging from 6 to 350 nM (GI50, ½ GI50 and ¼ GI50 of particular cell line) for 48 hours at 37° C. with 5% CO2. Cells (3×10^5) were then harvested and stained with 5 μl Annexin V-FITC and 10 μl propidium iodine (Becton Dickinson, CA, USA) for 15 minutes at room temperature. Ten thousands events were collected by the FACScaliber and the percentage of different cell populations were analyzed by the CellQuest™ software (Becton Dickinson).

[5] = system: human pancreatic cancer cell line SW; experiment: MTT cell cytotoxicity assay, SW pancreatic cancer cell line; assay type: cell-based; conditions: 48 hours
Description: A human pancreatic cancer cell line SW was purchased from Institute of Biochemistry and Cell Biology, Shanghai Institutes for Biological Sciences, Chinese Academy of Sciences (SIBCB, CAS, China). SW cell was grown in RPMI 1640 medium supplemented with 10% FBS and maintained in a humidified 5% CO2 atmosphere at 37° C. and the culture medium was changed once in 2 days.
The cytotoxic effect of CuB on SW cell was determined using MTT (3-[4,5-dimethylthiazol-2-yl]-2,5-diphenyl tetrazolium bromide) labeled cell cytotoxicity assay. A total of 1×10^4 cells were seeded into a 96-well plate for 24 hours prior to cucurbitacin B (CuB) treatment. They were then treated with different dosages of CuB for 48 hours. After the treatment, 20 μl of MTT (5 mg/ml) was added to each well and incubated for 4 hrs. Then the medium was discarded and 100 μl of dimethyl sulfoxide was added. The absorbance at 570 nm was then measured by FLUOstar OPTIMA equipment (BMG, LABTECH GmbH, Germany). The percentage of inhibition against different dosages of CuB were plotted using the Prism software and the 50% inhibition concentration (IC50) were obtained.

[6] = system: Human pancreatic cancer cell line Panc-1; experiment: Hollow fiber assay, Panc-1; assay type: in vivo, nude mice; conditions: up to 8 days
Description: The hollow fiber assay (HFA) was developed by the NCI as a high-throughput, preliminary in vivo screening assay for the evaluation of anti-cancer agents.
Human pancreatic cancer cell line Panc-1 were in vitro cultured inside hollow fibers for overnight, followed by in vivo implantation at s.c. sites of the nude mice. Mice were treated with vehicle control (0.5% CMC), positive control (100 mg/kg Gemcitabine) and 3 doses of cucurbitacin B (0.1 mg/kg, 0.5 mg/kg and 1.0 mg/kg) for up to 8 days. Then the fibers were excised and analyzed for cell viability by MTT assay. An additional group, the growth control group was also included in the assay. Mice in this group were sacrificed on the first day of treatment, and fibers were excised and analyzed for cell viability by MTT assay. The efficacies of cucurbitacin B against Panc-1 were expressed as the inhibited (or not) net growth percentage of the cancer cells when compared to the vehicle control group.

Structure (SMILES): CC(=O)OC(C)(C)/C=C/C(=O)[C@](C)(O)C1[C@H](O)C[C@@]2(C)C3CC=C4C(C[C@H](O)C(=O)C4(C)C)[C@]3(C)C(=O)C[C@]12C (stereo partly drawn) [cucurbitacin B]
- GI50 [1]: 15.6 to 35.3 nM
- weight of dissected tumors vs vehicle treated mice ([2]; i.p. 1 mg/kg three times a week, six weeks): weighed significantly less
- growth of MDA-MB-231 tumors compared with control ([2]; intraperitoneal 1 mg/kg 3 times a week, 6 weeks): 50.1%
- cell lines with G2/M arrest [3]: 6 out of 18
- cell cycle effect ([3]; HL60 (TB), 48 hours): G2/M arrest and endoreduplication
- cell lines in which apoptosis was induced [4]: 9 out of 18
- IC50 [5]: ~274 nM
- net-growth of Panc-1 compared to the vehicle control group ([6]; 0.1 mg/kg and 0.5 mg/kg): about 40%
- net cell growth of Panc-1 in hollow fibers ([6]; 0.1 mg/kg, 0.5 mg/kg and 1.0 mg/kg): potently inhibited
